# pIC50: −log10 of the molar value. Read-outs that look alike come from different tables or passages of the source.
# What was measured:
# [1] = Stability of fluorophores in the MPO/H2O2/Cl- system; format: physicochemical; details: fluorophore 5 µM, MPO 1.2 nM, H2O2 10 µM, NaCl 0.1 M, pH 7.4
# Experimental: To check the stability of the COH, FL, and NBD-TSO fluorescence signal under the oxidizing conditions of MPO/H2O2/Cl^–, the fluorophores were incubated under the same reaction conditions, as described above for the five probes used in the study (Supplementary Figure S1). […] Overall, the fluorophores formed from the probes used may undergo consumption in the presence of MPO, H2O2 and Cl^–, due to their reaction with HOCl and/or via peroxidatic activity of MPO in the absence of Cl^–. This is, however, expected to occur only under the condition of excess of the oxidants (H2O2 and/or HOCl), as evidenced by the stable fluorescence signals of the products observed within 1 h of incubation (Fig. 3). The experimental design for monitoring HOCl involving probes producing such fluorophores should, therefore, take into account potential consumption of the fluorescent product, when the amount of the oxidant exceeds the probe availability.
# (§1) Supplementary Figure S1. (a) Decrease of COH fluorescence in the incubation mixtures containing […]
# (§2) in the presence of catalase (100 U/ml, black); in the absence of NaCl (green); in the absence of NaCl but in the presence of catalase (dark blue); in the absence of MPO (light blue); in th e absence of MPO but in the presence of catalase (pink). ( b), (c) same as (a) but instead of COH, incubation mixtures contained fluorescein and NBD -TSO, respectively.
# Supplementary Figure S2. The relationship used to determine the rate constant between APF and HOCl (a), or […] and HOCl (b), according to the competition kinetic approach. The solid lines in the panel (a) and (b) represent the linear fittings to the equation
# 1 = 1 + 1 kAPC/or APF [APC/orAPF]. In the case of reaction between […]
# (2kFLBA+HOCl = 1,11 × 104 M-1s-1). In the case of APF, the samples contained APF (0 – 100 µM), HOCl (5 µM), and CBA (25 µM) as a reference compound (2kCBA+HOCl = 1,80 × 104 M-1s-1). The concentrations of COH and fluorescein were determined by LC/MS. […]
# [2] = Effect of DMSO on HOCl-induced probe oxidation; format: physicochemical; details: 20 µM probe, 10 µM HOCl, pH 7.4
# From the text: DMSO is a solvent well tolerated by cells and it is often used to dissolve organic compounds intended for cell culture studies. Most chemical libraries for HTS applications use DMSO as the solvent. However, DMSO reacts directly with HOCl with a second-order rate constant of 350 ± 40 M^−1s^−1 and it has been shown that it may interfere with oxidation of boronate probes by HOCl[49]. Thus, the influence of DMSO additive on the observed fluorescence signal generated in the reaction between HOCl and the studied probes was evaluated. In this experiment, the incubation mixtures contained the chosen probe (20 µM), phosphate buffer (50 mM, pH 7.4), and DMSO in the amounts between 0–5% v/v (0–0.7 M). The reaction with HOCl was initiated by the bolus addition of 1 mM sodium hypochlorite to obtain the final HOCl concentration of 10 µM. In the case of NBD-TM that reacts rapidly and stoichiometrically (1:1 ratio) with HOCl[44] about 10 µM of NBD-TSO was formed (Fig. 6). […] The presence of 0.5% v/v (0.07 M) or higher concentrations of DMSO was sufficient to completely scavenge HOCl and block the fluorescence increase.
# Incubation mixtures contained 20 µM of a probe, 10 µM HOCl, 0–5% v/v (0–0.7 M) DMSO, and 50 mM phosphate buffer (pH 7.4). (Representative result of three independent experiments is shown. Points represent means ± S.D.)
# MPO [3] = target: T1, MPO (Homo sapiens, UniProt P05164); experiment: Z' parameter of the MPO/H2O2/Cl- assays; parameters: MPO from human neutrophils was obtained from Athens Research and Technology; purchased Athens Research and Technology (Athens, GA); host or cells: human neutrophils (natural source, donor material); details: both end-point (20 min) and kinetic (initial rates over 5 min) measurements
# Experimental: The Z’ parameter is a measure of the assay quality in terms of its applicability to screen for bioactive compounds in cell-free or cell-based systems. The Z’ value of 0.5 or higher is generally accepted for the application of any assay for high throughput screening (HTS) of large chemical libraries. For the probes tested, the Z’ parameter was calculated on the basis of end-point measurements (fluorescence measured at a specific time of incubation) and kinetic measurements (rates of fluorescence increase), according to the Eq. 5. In the end-point measurements the Z’ values were calculated for the time of incubation equal to 20 min. To calculate the kinetic Z’ the initial rates of fluorescent product formation over 5 min were used. […] The lowest Z’ values around 0.7 were obtained for the NBD-TM probe. All the probes produced the Z’ values compatible with HTS applications.
# The Z’ factor is a dimensionless coefficient and was calculated on the basis of data presented in Fig. 3 according to the equation below (Eq. 5)[57].5 Z^′=1-3S.D.control+-3S.D.control -/meancontrol +-meancontrol -, where S.D.control+ and S.D.control- are the standard deviation values, and meancontrol+ and meancontrol- are the mean values for the positive and negative control, respectively. The value of Z ' above 0.5 means good quality of the assay. The higher value of Z ' parameter means the better quality of the assay. This parameter cannot reach value higher than 1.
# [4] = Competition kinetics of APC and APF with boronate reference for HOCl; format: physicochemical; details: FLBA (for APC) or CBA (for APF) 25 µM as reference, HOCl 5 µM, pH 7.4
# Experimental: The rate constants of 1.8 × 10^4 M^−1s^−1 and 1.1 × 10^4 M^−1s^−1 were obtained for CBA and FLBA, respectively, which are typical values reported for this class of probes (Fig. 4a,b)[29],[36],[38],[45]. […] The highest rate constant was obtained for the NBD-TM probe which was equal to 1.0 × 10^7 M^−1s^−1. This rate constant was calculated using a second order rate constant of 1.8 × 10^4 M^−1s^−1 for the reference compound (CBA). The determined value of the rate constant for NBD-TM is consistent with the reaction rate constants reported for other thioethers with HOCl[41],[46].
# as §1, §2
# Supplementary Figure S2. The relationship used to determine the rate constant between APF and HOCl (a), or […] and HOCl (b), according to the competition kinetic approach. The solid lines in the panel (a) and (b) represent the linear fittings to the equation […]
# (2kFLBA+HOCl = 1,11 × 104 M-1s-1). […] The concentrations of COH and fluorescein were determined by LC/MS. […]
# [5] = cited from earlier work
# MPO [6] = target: T1, MPO; details: read-out: Azide anion IC50, MPO 1.2 nM, H2O2 10 µM, pH 7.4
# Experimental: (§3) Mixtures contained MPO (1.2 nM), H2O2 (10 µM), NaCl (0.1 M), phosphate buffer (50 mM, pH 7.4), and the appropriate probe (20 µM). […] In the calculations the initial rates of probes oxidation were used. (Data are means ± standard deviation of three independent experiments).
# MPO from human neutrophils was obtained from Athens Research and Technology (Athens, GA, According to the Certificate of Origin, the material used has been obtained from an FDA licensed collection center. Further the donors has given by signature full informed consent for the material to be used in commercial scientific research). […] Fluorescent probes were synthetized according to the procedures described in the literature. The synthesis of fluorescein pinacol boron ester (Fl-B) was performed based on the procedures published by Dickinson et al. and Rios et al.[58],[59]. The obtained boronate was then hydrolyzed to fluorescein boronic acid (FLBA). The synthesis of APF was performed based on the procedure published by Setsukinai and cooworkers. […] The detailed description of synthetic procedures can be found in the Supplementary Information. The CBA synthesis is described elsewhere[37],[61].
# The lyophilized powder of MPO was dissolved in distilled water accordingly to the supplier recommendation and, if required, stored at 6 °C by the day of analysis. Such prepared solution was then diluted with phosphate buffer, pH 7.4, to the appropriate concentration and the volume of 0.5–2 µL/well depending on the activity was pipetted directly to 96-well plate (Costar 3840). […] Reactions were stared adding 100 µl/well of 20 µM hydrogen peroxide solution.
# MPO [7] = target: T1, MPO; details: read-out: recommended average IC50 value; average of CBA, FLBA and NBD-TM probes
# Experimental: as §3
# [8] = Stability of probe stock solutions; format: physicochemical; details: stock in acetonitrile or water/acetonitrile (1:1 v/v), 6 °C in the dark
# Experimental: In the case of FLBA and APF, the two millimolar probe solutions were prepared in the water/acetonitrile mixture (1:1 v/v).
# T1 sequence (P05164 279-745 limits assumed): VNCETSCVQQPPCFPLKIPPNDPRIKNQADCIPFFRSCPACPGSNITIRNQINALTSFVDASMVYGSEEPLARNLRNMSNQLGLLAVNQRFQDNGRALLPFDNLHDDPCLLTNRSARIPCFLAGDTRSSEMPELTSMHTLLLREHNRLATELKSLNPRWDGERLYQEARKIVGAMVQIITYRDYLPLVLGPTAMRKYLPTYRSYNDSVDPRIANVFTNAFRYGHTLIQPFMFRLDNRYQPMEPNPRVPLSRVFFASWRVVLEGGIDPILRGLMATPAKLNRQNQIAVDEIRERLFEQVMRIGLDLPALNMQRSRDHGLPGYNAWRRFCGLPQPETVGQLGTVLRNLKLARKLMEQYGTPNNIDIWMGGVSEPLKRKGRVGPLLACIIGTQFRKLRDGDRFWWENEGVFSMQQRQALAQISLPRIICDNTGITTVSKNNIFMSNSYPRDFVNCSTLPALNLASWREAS
# T1 sequence (P05164 165-273 limits assumed): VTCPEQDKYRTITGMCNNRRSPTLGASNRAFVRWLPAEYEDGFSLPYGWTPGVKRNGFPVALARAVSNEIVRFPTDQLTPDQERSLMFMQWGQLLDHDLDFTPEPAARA
molecule,measurement,setting,value
O=C1OC2(c3ccc(O)cc3Oc3cc(O)ccc32)c2ccccc21 [fluorescein],stability of the fluorescence signal,[1],a slight decrease in the fluorescence intensity
O=[N+]([O-])c1ccc(N2CC[S+]([O-])CC2)c2nonc12 [NBD-TSO],stability of the fluorescence signal,[1],slowly decomposing or precipitated during the time of incubation
"O=[N+]([O-])c1ccc(N2CCSCC2)c2nonc12 [NBD-TM, 4-thiomorpholino-7-nitrobenz-2-oxa-1,3-diazole]",decrease of NBD-TSO concentration by DMSO,[2]; 0.5% (0.07 M) DMSO,about 5%
same,decrease of NBD-TSO concentration by DMSO,[2]; 1% (0.14 M) DMSO,about 10%
same,decrease of NBD-TSO concentration by DMSO,[2]; 5% (0.7 M) DMSO,~35%
same,Z' value,MPO [3],around 0.7
7-(p-aminophenyl)-coumarin [APC],rate constant with HOCl by competition kinetics compared with stopped-flow value,[4],nearly identical rate constants
same,Z' value,MPO [3],around 0.9
C[S+](C)[O-] [DMSO],second-order rate constant of the reaction with HOCl,[5],350 ± 40 M⁻¹ s⁻¹
"[N-]=[N+]=[N-] [Azide anion, sodium azide]",pIC50,"MPO [6]; APC probe 20 µM, NaCl 0.1 M",5.71
same,pIC50,"MPO [6]; APF probe 20 µM, NaCl 0.1 M",5.63
same,pIC50,"MPO [6]; Amplex Red 20 µM, no NaCl",5.98
same,pIC50,"MPO [6]; Amplex Red 20 µM, no NaCl, listed as N3^–",6.00
same,pIC50,"MPO [6]; CBA probe 20 µM, NaCl 0.1 M",6.09
same,pIC50,"MPO [6]; FLBA probe 20 µM, NaCl 0.1 M",6.27
same,pIC50,"MPO [6]; NBD-TM probe 20 µM, NaCl 0.1 M",6.20
same,pIC50,MPO [7],6.15
"O=C(O)c1ccccc1-c1c2ccc(=O)cc-2oc2cc(B(O)O)ccc12 [FLBA, fluorescein boronic acid]",stability of stock solution,[8],stable at least one-month
same,Z' value,MPO [3],around 0.9
"O=c1ccc2ccc(B(O)O)cc2o1 [CBA, coumarin boronic acid]",stability of stock solution,[8],stable at least one-month
same,Z' value,MPO [3],around 0.9
CSCC[C@H](N)C(=O)O [L-methionine],reaction rate constant with HOCl (^2k),[5],3.4e+07 M⁻¹ s⁻¹
"Nc1ccc(Oc2ccc3c(-c4ccccc4C(=O)O)c4ccc(=O)cc-4oc3c2)cc1 [APF, 3’-(p-aminophenyl)-fluorescein]",rate constant with HOCl by competition kinetics compared with stopped-flow value,[4],nearly identical rate constants
same,stability of stock solution,[8],stable at least one-month
same,Z' value,MPO [3],around 0.9
"O=c1ccc2ccc(O)cc2o1 [COH, 7-hydroxycoumarin]",stability of the fluorescence signal,[1],decreasing with the time of incubation
